In PMC8713283 (Journal of Medicinal Chemistry, 2021):
Where “and” joins values, the source holds several entries; their conditions need not be identical. Equal entries are not always repeated.

Assays:
VHL + Brd4BD2 = target: T1, VHL + Brd4BD2 (Homo sapiens, UniProt O60885+P40337); format: binding; settings: for ΔpKd: Log10(α) = pKd ternary - pKd binary
T1 construct: Brd4-BD2 (333–460); His6 (N, cleaved yes); made in house; host or cells: E. coli

VHL + Brd2BD2 = target: T2, VHL + Brd2BD2 (Homo sapiens, UniProt P25440+P40337); assay: FP competition, ternary binding to VHL with Brd2BD2; settings: for ΔpKd: Log10(α) = pKd ternary - pKd binary
T2 construct: Brd2-BD2 (344–455); His6 (N, cleaved yes); made in house; host or cells: E. coli

P-gp (human MDR1) = assay: in vitro; settings: dog; for Papp B→A at 5 µM / Papp A→B at 5 µM: MDCK-MDR1; for efflux ratio at 5 µM: MDCK-MDR1, Efflux ratio B-A/A-B, MDCK-MDR1, 5 µM, N = 2
VHL + Brd3BD1 = VHL + Brd3BD1 (Homo sapiens, UniProt P40337+Q15059); settings: for ΔpKd: Log10(α) = pKd ternary - pKd binary; for Cooperativity α: α = Kd binary/Kd ternary
VHL + Brd3BD2 = target: T3, VHL + Brd3BD2 (Homo sapiens, UniProt P40337+Q15059); assay: FP competition, ternary binding to VHL with Brd3BD2; settings: for ΔpKd: Log10(α) = pKd ternary - pKd binary; for Cooperativity α: α = Kd binary/Kd ternary
T3 construct: Brd3-BD2 (306–416); His6 (N, cleaved yes); made in house; host or cells: E. coli

VHL + Brd4BD1 = VHL + Brd4BD1 (Homo sapiens, UniProt O60885+P40337); settings: for ΔpKd: Log10(α) = pKd ternary - pKd binary; for Cooperativity α: α = Kd binary/Kd ternary
[1] = LPEester – LPEamide by amide–ester matched pairs
[2] = human
[3] = Log D(dec/w) shake flask partition coefficient; format: physicochemical; settings: 1,9-decadiene/PBS; 1,9-decadiene and PBS pH 7.4 shake flask partition coefficient
in vitro = settings: PAMPA
Brd2 = target: T4, Brd2 (Homo sapiens, UniProt P25440); assay: Western blot degradation of Brd2 in HEK293 cells; format: cell-based
T4 construct: endogenous in cells; host or cells: HEK293

Brd4 = target: T5, Brd4 (Homo sapiens, UniProt O60885); assay: Western blot degradation of Brd4 in HEK293 cells; format: cell-based; settings: HEK293, 4 h, 10 μM, N = 1
T5 construct: endogenous in cells; host or cells: HEK293

VHL + Brd2BD1 = target: T6, VHL + Brd2BD1 (Homo sapiens, UniProt P25440+P40337); assay: FP competition, ternary binding to VHL with Brd2BD1
T6 construct: His6 (N, cleaved yes); made in house; host or cells: E. coli

Molecule `Cc1ncsc1-c1ccc(CNC(=O)[C@@H]2C[C@@H](O)CN2C(=O)[C@@H](NC(=O)COCCOCCOCCNC(=O)C[C@@H]2N=C(c3ccc(Cl)cc3)c3c(sc(C)c3C)-n3c(C)nnc32)C(C)(C)C)cc1` [Compound 21, MZ1] has a ΔpKd (VHL + Brd4BD2) of 1.73, a ΔpKd (VHL + Brd2BD2) of 1.46 and a Papp B→A at 5 µM (P-gp (human MDR1)) of 15 nm/s. For the same molecule, the “PAMPA Pe” value was 0.01 ×10^–6 cm/s, the ΔpKd (VHL + Brd3BD1) was 0.45 and the “Cooperativity α” value (VHL + Brd3BD1) was 2.8. The ΔpKd (VHL + Brd3BD2) was 0.73, the “Cooperativity α” value (VHL + Brd3BD2) was 5.3 and the ΔpKd (VHL + Brd4BD1) was 0.62. The “Cooperativity α” value (VHL + Brd4BD1) was 4.2.

For `COCC(=O)OCCCCCC(=O)N[C@H](C(=O)N1C[C@H](O)C[C@H]1C(=O)NCc1ccc(-c2scnc2C)cc1)C(C)(C)C` [Compound 8, 6-(((S)-1-((2S,4R)-4-Hydroxy-2-((4-(4-methylthiazol-5-yl)benzyl)carbamoyl)pyrrolidin-1-yl)-3,3-dimethyl-1-oxobutan-2-yl)amino)-6-oxohexyl 2-methoxyacetate], the ΔLPE [1] was -0.2, the Papp A→B at 5 µM (P-gp (human MDR1)) was 4 nm/s and the Papp B→A at 5 µM (P-gp (human MDR1)) was 110 nm/s. The efflux ratio at 5 µM (P-gp (human MDR1)) was 26, the Plasma stability [2] was 1 ± 0.4% and the logD hydrocarbon water [3] was -1.7.

In the case of `CCCC(=O)OCCCCCC(=O)N[C@H](C(=O)N1C[C@H](O)C[C@H]1C(=O)NCc1ccc(-c2scnc2C)cc1)C(C)(C)C` [Compound 9, 6-(((S)-1-((2S,4R)-4-Hydroxy-2-((4-(4-methylthiazol-5-yl)benzyl)carbamoyl)pyrrolidin-1-yl)-3,3-dimethyl-1-oxobutan-2-yl)amino)-6-oxohexyl Butyrate], the ΔLPE [1] is reported as 1.1, the Papp A→B at 5 µM (P-gp (human MDR1)) is reported as 9 nm/s and the Papp B→A at 5 µM (P-gp (human MDR1)) is reported as 470 nm/s. For the same molecule, the efflux ratio at 5 µM (P-gp (human MDR1)) was 55, the Papp (in vitro) was 65 nm/s and the Plasma stability [2] was 13 ± 1%. It also gave a logD hydrocarbon water [3] of -0.5.

In the case of `Cc1ncsc1-c1ccc([C@H](C)NC(=O)[C@@H]2C[C@@H](O)CN2C(=O)[C@@H](NC(=O)COCCCOCCNC(=O)C[C@@H]2N=C(c3ccc(Cl)cc3)c3c(sc(C)c3C)-n3c(C)nnc32)C(C)(C)C)cc1` [Compound 22, ARV-771], the ΔpKd (VHL + Brd4BD2) is reported as 1.12, the “Cooperativity α” value (VHL + Brd4BD2; α = Kd binary/Kd ternary) is reported as 13 and the “pDC50 Brd2” value (Brd2; HEK293, 4 h, 1 μM to 100 pM, mean ± S.E., three experiments) is reported as 6.9 ± 0.2 and 7.4 ± 0.1. For the same molecule, the DC50 (Brd2; read-out: DC50 Brd2, HEK293 cells) was 0.042 µM, the ΔpKd (VHL + Brd2BD2) was 0.66 and the Kd (VHL + Brd2BD2; read-out: pKd ternary (converted)) was 0.00741 µM. The “Cooperativity α” value (VHL + Brd2BD2; α = Kd binary/Kd ternary) was 4.6, the ΔpKd (VHL + Brd3BD1) was 0.30 and the “Cooperativity α” value (VHL + Brd3BD1) was 2.0. The ΔpKd (VHL + Brd3BD2) was 0.64, the “Cooperativity α” value (VHL + Brd3BD2) was 4.3 and the “Hook effect, Brd4 protein levels” value (Brd4) was “exhibited a hook effect”. For the same molecule, the ΔpKd (VHL + Brd2BD1; Log10(α) = pKd ternary - pKd binary) was 0.38, the “Cooperativity α” value (VHL + Brd2BD1; α = Kd binary/Kd ternary) was 2.4 and the ΔpKd (VHL + Brd4BD1) was 0.42. The “Cooperativity α” value (VHL + Brd4BD1) was 2.6.

Work on `Cc1ncsc1-c1ccc(CNC(=O)[C@@H]2C[C@@H](O)CN2C(=O)[C@@H](NC(=O)CCCCCOC(=O)CC(c2ccccc2)c2ccccc2)C(C)(C)C)cc1` [Compound 13, 6-(((S)-1-((2S,4R)-4-Hydroxy-2-((4-(4-methylthiazol-5-yl)benzyl)carbamoyl)pyrrolidin-1-yl)-3,3-dimethyl-1-oxobutan-2-yl)amino)-6-oxohexyl 3,3-diphenylpropanoate] yielded a ΔLPE [1] of 1.6, a Papp A→B at 5 µM (P-gp (human MDR1)) of 2 nm/s and a Papp B→A at 5 µM (P-gp (human MDR1)) of 139 nm/s. The efflux ratio at 5 µM (P-gp (human MDR1)) was 84, the Plasma stability [2] was 58 ± 6% and the logD hydrocarbon water [3] was 1.9.
